{"source": "patent US20080182893A1", "about": "“Anti-Atherogenic Composition” (SAN-EI GEN F.F.I., INC., priority 2005, published 2008)", "tested_on": "ApoE-KO mice", "test": "Test Example 2: influence of EMIQ and QC on atherosclerosis, thoracic-abdominal aortic lesion area", "assay_type": "in vivo", "settings": "low dose 33 μmol/kg in feed, 14 weeks, versus control group (G1), FIG. 2", "protocol": "The EMIQ prepared in Preparation Example 2 and the QC prepared in Preparation Example 3 were orally administered for 14 weeks to ApoE-KO mice in order to elucidate the atherosclerosis progression inhibiting effect of these substances. The atherosclerosis progression inhibiting effect was evaluated based on the atherosclerotic lesion area rate (%) at the thoracic-abdominal aorta of the ApoE-KO mice.\nSpecifically, before the test the test animals (ApoE-KO mice) were housed for 11 days for environmental acclimation and were then assigned, taking into consideration the body weight and total serum cholesterol (T-cho value), into the following four groups (8 animals in each group) in a completely randomized design using a group assignment system (Statlight #11 Group Assignment, Yukms Co., Ltd., Tokyo): the control group (a group not receiving either substance, G1), a group receiving quercetin admixed in the feed at 33 μmol/kg (low-dose QC group, G2), a group receiving EMIQ admixed in the feed at 33 μmol/kg (low-dose EMIQ group, G3), and a group receiving EMIQ admixed in the feed at 330 μmol/kg (high-dose EMIQ group, G4). […]", "data": [{"smiles": "O=c1c(O)c(-c2ccc(O)c(O)c2)oc2cc(O)cc(O)c12", "note": "[QC, quercetin]", "values": [{"measurement": "thoracic-abdominal aortic atherosclerotic lesion area rate (%)", "result": "no difference"}]}]}
